Source: paper PMC3091812 (Neuropeptides, 2011)

How the values were obtained:
[1] = test system: HEK-293 cells; assay: Caspase-3 activity assay, protection from staurosporine; assay type: cell-based, Human; conditions: 1 μM staurosporine, 12 hours, vs citrate buffer control
[2] = test system: HEK-293 cells; assay: Caspase-3 activity assay, protection from 3-nitropropionate; assay type: cell-based, Human; conditions: 8 mM 3-NP, 12 hours, over control

CN[C@@H]1C[C@H]2O[C@@](C)([C@@H]1OC)n1c3ccccc3c3c4c(c5c6ccccc6n2c5c31)C(=O)NC4 [staurosporine]
increase of caspase-3 activity by toxin [1]: approximately 80%

O=C(O)CC[N+](=O)[O-] [3-NP, 3-nitropropionate]
increase of caspase-3 activity by toxin [2]: approximately 100%
